# Measured values published in ChEMBL document CHEMBL1795278, “Synthesis and evaluation of fluorescent heterocyclic aminoadamantanes as multifunctional neuroprotective agents” (Bioorg Med Chem, 2011).
# Key:
# [1] = system: Radical scavenging activity; assay: Antioxidant activity assessed as inhibition of DPPH free radicals at 1 mM after 30 mins by UV-visible spectrophotometer analysis relative to control; type: functional
# [2] = system: Radical scavenging activity; assay: Antioxidant activity assessed as inhibition of DPPH free radicals at 0.1 mM after 30 mins by UV-visible spectrophotometer analysis relative to control; type: functional
# [3] = system: Radical scavenging activity; assay: Antioxidant activity assessed as inhibition of DPPH free radicals after 30 mins by UV-visible spectrophotometer analysis relative to control; type: functional
# [4] = Antioxidant activity assessed as inhibition of ABTS free radicals at 0.01 mM after 30 mins by UV-visible spectrophotometer analysis relative to control; type: functional
# [5] = system: Radical scavenging activity; assay: Antioxidant activity assessed as inhibition of DPPH free radicals at 0.01 mM after 30 mins by UV-visible spectrophotometer analysis relative to control; type: functional
# [6] = Antioxidant activity assessed as inhibition of ABTS free radicals after 30 mins by UV-visible spectrophotometer analysis relative to control; type: functional
# [7] = Antioxidant activity assessed as inhibition of ABTS free radicals at 0.1 mM after 30 mins by UV-visible spectrophotometer analysis relative to control; type: functional
# [8] = Antioxidant activity assessed as inhibition of ABTS free radicals at 1 mM after 30 mins by UV-visible spectrophotometer analysis relative to control; type: functional
# [9] = target: Nitric oxide synthase 1 (Rattus norvegicus, UniProt P29476); assay: Inhibition of nNOS in Sprague-Dawley rat brain homogenates assessed as conversion of oxyhemoglobin to methemoglobin measured for 10 mins by UV-visible spectrophotometer analysis
# [10] = Antagonist activity at NMDAR in Sprague-Dawley rat brain synaptoneurosomes assessed as inhibition of NMDA/glycine-induced calcium flux at 100 uM after 5 mins using FURA-2AM by fluorescent spectrometer analysis relative to control; type: functional
# [11] = Antagonist activity at VGCC in Sprague-Dawley rat brain synaptoneurosomes assessed as inhibition of Kcl-induced calcium flux at 100 uM after 5 mins using FURA-2AM by fluorescent spectrometer analysis relative to control; type: functional
# Nitric oxide synthase 1, sequence (P29476 whole entry): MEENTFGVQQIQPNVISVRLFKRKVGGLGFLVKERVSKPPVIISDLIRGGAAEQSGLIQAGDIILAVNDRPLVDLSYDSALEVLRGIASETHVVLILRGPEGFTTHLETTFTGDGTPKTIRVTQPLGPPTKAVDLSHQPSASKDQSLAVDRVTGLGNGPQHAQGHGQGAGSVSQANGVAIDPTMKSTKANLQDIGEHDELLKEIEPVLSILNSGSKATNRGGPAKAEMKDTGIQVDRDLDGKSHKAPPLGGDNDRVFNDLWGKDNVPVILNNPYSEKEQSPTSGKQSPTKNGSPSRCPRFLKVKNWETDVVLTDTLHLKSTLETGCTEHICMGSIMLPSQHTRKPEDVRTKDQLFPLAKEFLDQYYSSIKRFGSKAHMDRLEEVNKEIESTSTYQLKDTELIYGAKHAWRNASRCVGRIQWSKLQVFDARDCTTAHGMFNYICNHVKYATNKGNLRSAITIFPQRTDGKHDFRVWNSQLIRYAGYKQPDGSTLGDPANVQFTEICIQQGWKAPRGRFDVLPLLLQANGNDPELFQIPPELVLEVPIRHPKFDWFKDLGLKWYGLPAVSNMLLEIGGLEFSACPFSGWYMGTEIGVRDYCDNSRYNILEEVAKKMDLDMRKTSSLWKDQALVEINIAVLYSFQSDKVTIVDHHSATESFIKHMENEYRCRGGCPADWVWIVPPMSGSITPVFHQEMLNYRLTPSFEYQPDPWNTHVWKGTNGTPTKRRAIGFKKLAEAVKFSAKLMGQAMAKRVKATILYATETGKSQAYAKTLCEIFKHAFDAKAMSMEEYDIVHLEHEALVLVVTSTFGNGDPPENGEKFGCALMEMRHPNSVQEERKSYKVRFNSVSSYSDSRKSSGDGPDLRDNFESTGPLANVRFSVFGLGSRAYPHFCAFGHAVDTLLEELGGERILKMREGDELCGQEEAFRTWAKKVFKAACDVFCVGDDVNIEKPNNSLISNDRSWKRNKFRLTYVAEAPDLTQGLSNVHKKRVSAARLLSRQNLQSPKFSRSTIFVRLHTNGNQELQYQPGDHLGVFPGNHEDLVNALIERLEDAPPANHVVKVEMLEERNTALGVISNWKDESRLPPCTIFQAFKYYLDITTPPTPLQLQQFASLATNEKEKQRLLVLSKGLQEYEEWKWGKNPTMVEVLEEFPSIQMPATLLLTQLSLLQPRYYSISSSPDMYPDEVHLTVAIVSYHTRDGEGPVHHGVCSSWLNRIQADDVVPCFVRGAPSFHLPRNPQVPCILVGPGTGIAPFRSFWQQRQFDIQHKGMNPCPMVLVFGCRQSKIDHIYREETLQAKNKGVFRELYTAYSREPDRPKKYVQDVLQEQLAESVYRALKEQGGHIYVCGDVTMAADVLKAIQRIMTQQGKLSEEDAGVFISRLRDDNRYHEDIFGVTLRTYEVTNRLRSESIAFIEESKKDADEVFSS
Compound,inhibition [1] [%],inhibition [2] [%],inhibition [3],inhibition [4] [%],inhibition [5] [%],inhibition [6],inhibition [7] [%],inhibition [8] [%],IC50 ([9]; read-out: IC50) [nM],IC50 [9],inhibition (INH) [10] [%],inhibition (INH) [11] [%]
Cc1c(C)c2c(c(C)c1O)CCC(C)(C(=O)O)O2 (stereo not given),95.1,74.6,Dose-dependent effect,47.6,45.8,Dose-dependent effect,62.8,88.5,–,–,–,–
N=C(N)NN [PIMAGEDINE],–,–,–,–,–,–,–,–,19400,–,–,–
c1ccc(CNC23OC4C5C6CC(C7C6C4C72)C53)cc1 (stereo not given),9.98,5.99,Dose-dependent effect,2.44,0.2,Dose-dependent effect,7.33,8.88,–,Not Active,86.63,70.12
N#Cc1c2ccccc2cn1C12CC3CC(CC(C3)C1)C2,32.7,27.8,Dose-dependent effect,9.98,27.4,Dose-dependent effect,13.2,13.5,–,–,84.01,54.24
NC12CC3CC(CC(C3)C1)C2 [AMANTADINE],2.32,2.11,Dose-dependent effect,0.49,0.55,Dose-dependent effect,1.34,1.62,–,Not Active,83.1,86.13
O=C(NC12CC3CC(CC(C3)C1)C2)c1n[nH]c2ccccc12,32.9,30.1,Dose-dependent effect,12.4,28.7,Dose-dependent effect,21.7,39.9,–,–,83,93.43
O=C(NC12CC3CC(CC(C3)C1)C2)c1cc2ccccc2oc1=O,91.7,69.8,Dose-dependent effect,87.5,31.8,Dose-dependent effect,91.8,93.3,850,–,79.71,75.35
CN(C)c1cccc2c(S(=O)(=O)NC34CC5CC(CC(C5)C3)C4)cccc12,40.9,38.1,Dose-dependent effect,8.11,38,Dose-dependent effect,22.4,41.6,410,–,78.05,44.77
CNc1ccccc1C(=O)NC12CC3CC(CC(C3)C1)C2,44,42.8,Dose-dependent effect,10.7,42.7,Dose-dependent effect,24.3,50.5,–,–,96.66,93.2
O=[N+]([O-])c1ccc(NC23CC4CC(CC(C4)C2)C3)c([N+](=O)[O-])c1,37,36.8,Dose-dependent effect,8.21,32.1,Dose-dependent effect,9.73,15.7,–,Not Active,80.75,89.14
COCCOC(=O)C1=C(C)NC(C)=C(C(=O)OC(C)C)C1c1cccc([N+](=O)[O-])c1 (stereo not given) [NIMODIPINE],–,–,–,–,–,–,–,–,–,–,–,12.29
